Results taken from patent publication US10196345B2, “MAO-B selective inhibitor compounds, pharmaceutical compositions thereof and uses thereof” (The University of British Columbia, priority 2013, dated 2019).
Structures can show the parent of a compound that is named as a salt. Where two headings read alike, the source gives them in different places.

How the values were obtained:
recombinant human MAO-A = target: T1, recombinant human MAO-A (Homo sapiens, UniProt P21397); experiment: Cell-free Fluorescent Monoamine Oxidase A&B Detection Assay, MAO-A; type: biochemical
T1 sequence (P21397 1-527): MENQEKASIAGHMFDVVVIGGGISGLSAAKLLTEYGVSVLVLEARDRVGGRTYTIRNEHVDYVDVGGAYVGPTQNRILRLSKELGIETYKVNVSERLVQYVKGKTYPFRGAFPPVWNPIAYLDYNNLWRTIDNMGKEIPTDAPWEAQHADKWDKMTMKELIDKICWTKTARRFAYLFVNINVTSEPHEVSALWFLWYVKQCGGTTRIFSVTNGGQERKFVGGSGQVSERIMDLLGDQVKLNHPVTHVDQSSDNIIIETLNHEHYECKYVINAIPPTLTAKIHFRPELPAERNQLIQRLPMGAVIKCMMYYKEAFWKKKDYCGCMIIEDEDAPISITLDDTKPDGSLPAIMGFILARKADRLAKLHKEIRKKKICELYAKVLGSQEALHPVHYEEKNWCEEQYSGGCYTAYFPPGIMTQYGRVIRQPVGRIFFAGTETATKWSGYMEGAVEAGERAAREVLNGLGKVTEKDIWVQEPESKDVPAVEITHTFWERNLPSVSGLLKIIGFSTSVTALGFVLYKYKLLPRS
Protocol: (§1) The assay was repeated to confirm data.
(§2) MAO B specific inhibitory activity and selectivity over MAO A is assayed using a commercial kit [Fluoro MAO A and B detection kit (Cell Technology Inc™)]. This kit uses a non-fluorescent detection reagent to measure H2O2 released from the conversion of an MAO A and MAO B substrate specific to its aldehyde. Furthermore, H2O2 oxidizes the detection reagent in a 1:1 stoichiometry to produce a fluorescent product (resorufin). […] This information is then provided to the medicinal chemists to help direct synthesis of subsequent iterations.

recombinant human MAO-B = target: T2, recombinant human MAO-B (Homo sapiens, UniProt P27338); experiment: Cell-free Fluorescent Monoamine Oxidase A&B Detection Assay, MAO-B; type: biochemical
T2 sequence (P27338 1-520): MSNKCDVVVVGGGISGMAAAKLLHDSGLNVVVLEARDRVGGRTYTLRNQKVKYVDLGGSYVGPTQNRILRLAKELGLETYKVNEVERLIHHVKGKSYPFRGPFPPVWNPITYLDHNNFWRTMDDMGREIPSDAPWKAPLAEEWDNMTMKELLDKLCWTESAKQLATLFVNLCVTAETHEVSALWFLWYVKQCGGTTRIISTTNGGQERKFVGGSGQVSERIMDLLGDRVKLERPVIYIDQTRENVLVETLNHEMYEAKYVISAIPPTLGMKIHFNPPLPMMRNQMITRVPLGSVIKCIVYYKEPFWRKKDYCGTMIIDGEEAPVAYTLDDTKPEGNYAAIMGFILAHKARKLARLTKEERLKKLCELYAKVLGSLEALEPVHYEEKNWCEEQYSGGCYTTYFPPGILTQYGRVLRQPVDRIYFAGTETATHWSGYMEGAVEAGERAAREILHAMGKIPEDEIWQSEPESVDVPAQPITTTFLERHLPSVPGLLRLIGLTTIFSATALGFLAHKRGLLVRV
Protocol: as §1, §2

[1] = cell-free, recombinant human MAO-A
[2] = cell-free, recombinant human MAO-A, read-out: IC50 MAO-A
[3] = cell-free, recombinant human MAO-A, read-out: IC90 MAO-A

Row | SMILES | IC50 MAO-A (μM) (recombinant human MAO-A; [1]) | IC90 (recombinant human MAO-B) | IC50 (recombinant human MAO-B; read-out: IC50 MAO-B) | further results
1 | CN(CC(=O)O)[C@H](CC#N)Cc1ccc(OCc2ccccc2)cc1.Cl [PS-AD0186, (S)—N-(1-(4-(benzyloxy)phenyl)-3-cyanopropan-2-yl)-N-methylglycine] | Does not | 4.44 µM | 0.56 µM | –
2 | CN(CC(=O)O)c1ccc(CCOCc2ccccc2)cc1.Cl [PS-RG0210] | Does not | 708 µM | 23.6 µM | –
3 | CN(CC(=O)O)Cc1cc(=O)oc2cc(Oc3ccccc3)ccc12.Cl [PS-RG0097] | Does not | – | – | IC90 MAO-B (μM) (recombinant human MAO-B): Does not
4 | C[C@H](Cc1ccc(OCc2cnc3ncccn23)cc1)N(C)CC(=O)O.Cl [PS-AD0223] | Does not | – | – | IC90 MAO-B (μM) (recombinant human MAO-B): Does not
5 | C[C@H](Cc1ccc(OCc2cccnc2)cc1)N(C)CC(=O)O.Cl.Cl [PS-RG0218] | Does not | – | – | IC90 MAO-B (μM) (recombinant human MAO-B): Does not
6 | C[C@H](Cc1ccc(OCc2cc(Cl)ccc2Cl)cc1)N(C)CC(=O)O.Cl [PS-AD0064, (R)—N-(1-(4-((2,5-dichlorobenzyl)oxy)phenyl)propan-2-yl)-N-methylglycine hydrochloride] | Does not | 25.8 µM | 1.27 µM | –
7 | CN(CC(=O)O)Cc1ccccc1.Cl [PS-RG0019] | Does not | – | – | IC90 MAO-B (μM) (recombinant human MAO-B): Does not
8 | C#CCN(C)[C@H](C)Cc1ccc(OCc2ccccc2)cc1 [PS-RG0061] | – | 0.023 µM | 0.00458 µM | IC50 (recombinant human MAO-A; IC50 MAO-A (μM), cell-free, recombinant human MAO-A): 0.163 µM; IC90 (recombinant human MAO-A; read-out: IC90 MAO-A (μM)): 1.05 µM
9 | C[C@H](Cc1ccc(OCc2ccc3ccccc3c2)cc1)N(C)CC(=O)O [PS-RG0227, (R)—N-methyl-N-(1-(4-(naphthalen-2-ylmethoxy)phenyl)propan-2-yl)glycine hydrochloride] | – | 843 µM | 11.5 µM | IC50 (recombinant human MAO-A; [2]): 955 µM; IC90 (recombinant human MAO-A; [3]): 63000 µM
10 | C[C@H](Cc1ccc(OCc2ccccc2)cc1)N(C)CC(=O)O [PS-RG0031A, N—((R)-(1-(4-(benzyloxy)phenyl)propan-2-yl)(methyl))glycine hydrochloride] | Does not | 30.5 µM | 0.908 µM | –
11 | C[C@H](Cc1ccc(Oc2ccccc2)cc1)N(C)CC(=O)O [PS-RG0008, N—((R)-(1-(4-(phenoxy)phenyl)propan-2-yl)(methyl))glycine hydrochloride] | Does not | 331 µM | 69.2 µM | –
12 | C[C@H](Cc1ccc(OCc2ccccc2C#N)cc1)N(C)CC(=O)O.Cl [PS-RG0171, (R)—N-(1-(4-((2-cyanobenzyl)oxy)phenyl)propan-2-yl)-N-methylglycine hydrochloride] | Does not | 1080 µM | 13 µM | –
13 | CN(CCc1ccccc1)CC(=O)O.Cl [PS-RG0020] | Does not | – | – | IC90 MAO-B (μM) (recombinant human MAO-B): Does not
14 | CN(CC(=O)O)[C@H](CCO)Cc1ccc(OCc2ccccc2)cc1.Cl [PS-AD0179, (S)—N-(1-(4-(benzyloxy)phenyl)-4-hydroxybutan-2-yl)-N-methylglycine] | Does not | 167 µM | 7.82 µM | –
15 | C[C@H](Cc1ccc(OCc2cccc(F)c2)cc1)N(C)CC(=O)O.Cl [PS-RG0173, (R)—N-(1-(4-((3-fluorobenzyl)oxy)phenyl)propan-2-yl)-N-methylglycine hydrochloride] | Does not | 13.5 µM | 0.785 µM | –
16 | O=C(O)c1coc(Cc2ccc(OCc3ccccc3)cc2)n1 [PS-AD0031] | Does not | – | – | IC90 MAO-B (μM) (recombinant human MAO-B): Does not
17 | C#CCN(C)CCc1ccccc1 [PS-RG0070] | – | 0.0306 µM | – | IC50 (recombinant human MAO-A; [2]): 12.5 µM; IC90 (recombinant human MAO-A; [3]): 126 µM; IC50 (recombinant human MAO-B; IC50 MAO-B (μM)): 0.0107 µM

Row | SMILES | IC50 MAO-A (μM) (recombinant human MAO-A; [1]) | IC90 (recombinant human MAO-B) | IC50 (recombinant human MAO-B; read-out: IC50 MAO-B) | further results
18 | CN(CC(=O)O)[C@H](CO)Cc1ccc(OCc2ccccc2)cc1 [PS-RG0188, (S)—N-(1-(4-(benzyloxy)phenyl)-3-hydroxypropan-2-yl)-N-methylglycine] | Does not | 19.7 µM | 0.738 µM | –
19 | COC(=O)[C@H](Cc1ccc(OCc2cccc(Cl)c2)cc1)N(C)CC(=O)O [PS-RG0122, N-Carboxymethyl-N-methyl-O-3-chlorobenzyloxytyrosine methyl ester hydrochloride] | Does not | 19.1 µM | 1.43 µM | –
20 | O=C([O-])C1=N[C@@H](Cc2ccccc2)CO1.[Na+] [PS-RG0200] | Does not | – | – | IC90 MAO-B (μM) (recombinant human MAO-B): Does not
21 | COc1cccc(COc2ccc(C[C@@H](C)N(C)CC(=O)O)cc2)c1 [PS-RG0264, (R)—N-(1-(4-((3-methoxybenzyl)oxy)phenyl)propan-2-yl)-N-methylglycine hydrochloride] | – | 50.5 µM | 2.22 µM | IC50 (recombinant human MAO-A; [2]): 359 µM; IC90 (recombinant human MAO-A; [3]): 78500 µM
22 | COC(=O)[C@H](Cc1ccc(OCc2ccccc2)cc1)N(C)CC(=O)O.Cl [PS-RG0123, N-Carboxymethyl)-N-(methyl-O-benzyloxytyrosine methyl ester hydrochloride] | Does not | 354 µM | 9.95 µM | –
23 | C[C@H](Cc1ccc(OCc2ccc(C#N)cc2)cc1)N(C)CC(=O)O.Cl [PS-AD0065, (R)—N-(1-(4-((4-cyanobenzyl)oxy)phenyl)propan-2-yl)-N-methylglycine hydrochloride] | Does not | 81.1 µM | 3.28 µM | –
24 | C[C@H](Cc1ccc(OCc2cc(F)cc(F)c2)cc1)N(C)CC(=O)O.Cl [PS-RG0174, (R)—N-(1-(4-((3,5-difluorobenzyl)oxy)phenyl)propan-2-yl)-N-methylglycine hydrochloride] | Does not | 6.7 µM | 0.794 µM | –
25 | C[C@H](Cc1ccc(OCc2ccc(Cl)cc2)cc1)N(C)CC(=O)O [PS-RG0226, (R)—N-(1-(4-((4-chlorobenzyl)oxy)phenyl)propan-2-yl)-N-methylglycine hydrochloride] | – | 3.42 µM | 0.505 µM | IC50 (recombinant human MAO-A; [2]): 198 µM; IC90 (recombinant human MAO-A; [3]): 1260 µM
26 | C[C@H](Cc1ccc(OCC(=O)O)cc1)N(C)CC(=O)O.Cl [PS-RG0219] | Does not | – | – | IC90 MAO-B (μM) (recombinant human MAO-B): Does not
27 | C[C@H](Cc1ccc(OCc2ccccn2)cc1)N(C)CC(=O)O.Cl.Cl [PS-RG0217, (R)—N-methyl-N-(1-(4-(pyridin-2-ylmethoxy)phenyl)propan-2-yl)glycine hydrochloride] | Does not | 577 µM | 26.6 µM | –
28 | CN(CC(=O)O)Cc1cc(=O)oc2cc(OCc3ccccc3)ccc12.Cl [PS-RG0098, N-((7-(benzyloxy)-2-oxo-2H-chromen-4-yl)methyl)-N-methylglycine hydrochloride] | Does not | 4.1 µM | 0.799 µM | –
29 | CN(CCc1ccc(OCc2ccccc2)cc1)CC(=O)O.Cl [PS-RG0064, N,N-(4-(Benzyloxy)phenethyl)(methyl)glycine hydrochloride] | Does not | 252 µM | 7.33 µM | –
30 | C[C@H](Cc1ccc(OCc2ccc(C(=O)O)cc2)cc1)N(C)CC(=O)O.Cl [PS-AD0065 B, (R)-4-((4-(2-((carboxymethyl)(methyl)amino)propyl)phenoxy)methyl)benzoic acid hydrochloride] | Does not | 149 µM | 10 µM | –
31 | C[C@H](Cc1ccc(OCc2ccncc2)cc1)N(C)CC(=O)O.Cl.Cl [PS-AD0068, (R)—N-methyl-N-(1-(4-(pyridin-4-ylmethoxy)phenyl)propan-2-yl)glycine hydrochloride] | Does not | 506 µM | 20 µM | –
32 | CN(CC(=O)O)C(=O)C=C1COc2cc(Oc3ccccc3)ccc21 [PS-RG0080] | Does not | – | – | IC90 MAO-B (μM) (recombinant human MAO-B): Does not
33 | C[C@H](Cc1ccc(OCc2cccc(C#N)c2)cc1)N(C)CC(=O)O.Cl [PS-RG0172, (R)—N-(1-(4-((3-cyanobenzyl)oxy)phenyl)propan-2-yl)-N-methylglycine hydrochloride] | Does not | 1840 µM | 19.7 µM | –
